Laboratory results reported in patent US20130115174A1, “TRANSMUCOSAL COMPOSITION CONTAINING ANTHOCYANINS FOR ALLEVIATING A VISUAL DISCOMFORT” (priority 2010, published 2013).
Like-named read-outs stand apart in the source and are kept apart here.

Assays:
[1] = Digestive versus sublingual absorption, plasmatic level 1 hour after administration; type: in vivo, Rats; conditions: for concentration at 1 h: rat, plasma, read-out: Plasmatic lutein concentration
Method: Taurin and Lutein plasmatic level are evaluated using HPLC process as described Lallemand F. et al, 2004 and Shanmugam S, et al, 2011, respectively.

[2] = design: species or system Rats (OFA, Sprague-Dawlay); conditions: rat, in vivo
Method: The stick gum administered to Rats contains 5 mg of vegetal extract titrated at 25% of anthocyanosides (i.e. 1.250 μg of anthocyanosides).
The Sprague Dawley rat (10 Males) used extensively in medical research weighing 450-520 g were received and placed separately in cage in room temperature controlled (22° C.). […] Rats were maintained in dark periode condition and fed a diet (755 g/kg wheat starch, 150 g/kg casein, 50 g/kg peanut oil, 35 g/kg AlN-93M mineral mixture, 10 g/kg AlN-76A vitamin mixture) during 2 weeks (Felgines, C. et al. J. Nutr 2002).
The stick gum was deposited at the buccal mucosa area.
Peripheral blood was collected 1 hour post-administration, centrifuged and plasma was acidified through formic acid addition. After acidification, plasma samples were conserved at −80° C. and analyzed by LC-MS/MS (Liquid Chromatography—Mass Spectrometer/Mass Spectrometer).
In parallel, epithelium and conjunctive tissues were collected 45 minutes post-administration, placed in formic acid and eventually conserved at −80° C. Before LC-MS/MS analyze, tissues were washed in PBS (phosphate buffered saline) and homogenized on ice. Protein concentrations were determined by Lowry method. To facilitate tissues preparation, samples were homogenized and treated with 2.5% trypsin and 2% collagenase during 1.5 h at 37° C., and then acidified with formic acid. […]

In the case of `CC1=C[C@H](O)CC(C)(C)[C@H]1/C=C/C(C)=C/C=C/C(C)=C/C=C/C=C(C)/C=C/C=C(C)/C=C/C1=C(C)C[C@@H](O)CC1(C)C` [lutein, Lutein], the “absorption, lingual way as compared to the digestive way” value ([1]; Example 5, rats) is reported as “more effective”, the concentration at 1 h ([1]; oral, Digestive, 6 mg/kg) is reported as 34 ng/mL and the concentration at 1 h ([1]; oral, Digestive, 12 mg/kg) is reported as 32 ng/mL. The concentration at 1 h ([1]; other: sublingual, Sublingual, 6 mg/kg) was 120 ng/mL and the concentration at 1 h ([1]; other: sublingual, Sublingual, 12 mg/kg) was 160 ng/mL.
For Anthocyanin, the “absorption in the tissues and in the plasma” value [2] was “significantly absorbed”.
